Values after ≈ are worked out from the molar mass of the structure shown. Like-named read-outs stand apart in the source and are kept apart here. Numbered stars: 1 amine (or outer) side, 2 acyl side, 3 side chain; on linkers, the order of the positions; unused ones are H or OH. Bridge positions count the residues as written; N and C are the ends. Square brackets hold non-standard residues; d marks the D form. Peptide text beside a SMILES is read from it. * marks the point of attachment. Morpholine(3S-CO) = O=C(O)[C@@H]1COCCN1; Phe(3-Me) = Cc1cccc(C[C@H](N)C(=O)O)c1; Pro(4R-Me) = C[C@H]1CN[C@H](C(=O)O)C1; Hyp = O=C(O)[C@@H]1C[C@@H](O)CN1; NH(3-Cl-phenyl) = Clc1cccc(N*)c1; NH(4-Cl-phenyl) = Clc1ccc(N*)cc1; aThr = C[C@H](O)[C@H](N)C(=O)O; Pip = O=C(O)[C@@H]1CCCCN1; CO = O=C([*:1])[*:2]
How the values were obtained:
S. aureus ΔClpP = experiment: Minimal inhibitory concentration, microbroth dilution; type: cell-based, Staphylococcus aureus; conditions: MIC; ClpP inactivated
Procedure, shortened: (§1)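 Compound was diluted twofold in the appropriate broth. Bacterial suspension (approx. 10^5 cfu/mL) was then added in equal volume, giving a maximum test concentration of 200 μM. After aerobic overnight incubation at 37 °C, wells were inspected visually for growth.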

S. aureus ATCC 29213 = experiment: as above; type: cell-based; conditions: Staphylococcus aureus
Procedure, shortened: as §1

E. faecails = experiment: as above; type: cell-based; conditions: Enterococcus faecalis
Procedure, shortened: as §1

S. aureus USA 300 = experiment: as above; type: cell-based; conditions: Staphylococcus aureus
Procedure, shortened: as §1

MRSA NRS70 = experiment: as above; type: cell-based; conditions: Staphylococcus aureus
Procedure, shortened: as §1

S. aureus ClpP (Sa-ClpP) = target: T1, S. aureus ClpP (Sa-ClpP) (Staphylococcus aureus, UniProt Q2G036); experiment: Casein-BODIPY digestion assay (ClpP activation); type: biochemical
T1 construct: made in house; host or cells: E. coli BL21 (DE3)
T1 sequence (Q2G036 whole entry): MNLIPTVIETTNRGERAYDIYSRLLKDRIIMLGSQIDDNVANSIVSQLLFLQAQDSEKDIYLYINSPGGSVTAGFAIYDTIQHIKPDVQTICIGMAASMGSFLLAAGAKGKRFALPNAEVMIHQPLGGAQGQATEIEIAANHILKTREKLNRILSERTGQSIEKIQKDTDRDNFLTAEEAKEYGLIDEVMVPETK
Method: The compounds were assayed in a casein digestion assay in order to determine their effect on ClpP activation. Briefly, the assay was carried out using S. aureus ClpP (“Sa-ClpP”) overexpressed in E. coli BL21 (DE3) and purified in a two-step process. Purity of the protein was assessed through SDS PAGE analysis. EC50 evaluations were conducted in triplicate in a 20 μl assay format using a method adapted from Maurizi et al. (Methods Enzymol. (1994) 244:314-331). Each well contained 10 μM saClpP, 25 μg/ml BODIPY FL casein (Invitrogen Corporation, San Diego, Calif.), and test compound in concentrations ranging between 0-1000 μM in assay buffer (50 mM Tris pH 8, 200 mM KCl, and 1 mM TCEP). The reaction took place at 37° C. Fluorescence (excitation 485 nm; emission 528 nm) was measured in five minute intervals over a 45 min period using a BioTek HT fluorescence microplate reader (BioTek Instruments, Inc., Winooski, Vt.). Velocity of each reaction was calculated and data was fit to a dose response curve using GraphPad Prism® software (GraphPad Software, Inc., La Jolla, Calif.). EC50 is the effective concentration of compound which causes 50% activation of S. aureus ClpP in the foregoing BODIPY FL casein assay.
Alternatively, the assay was carried out using EnzCheck Protease Assay (Molecular Probes, Catalog # E6638). The assay was performed in black 384 well, flat bottom, low volume plates (Greiner Bio-One, Monroe, N.C., catalog #784076). 10 μL of Tris.HCl buffer, pH 8.0 with 0.01% Triton X-100 was pipetted into each well using a Well-Mate (Thermo Scientific, Waltham, Mass.). 0.4 μL test compounds or controls (2% DMSO v/v) were added to each well using a Biomek FX liquid handling robot (Beckman Coulter, Indianapolis, Ind.). After addition of test compounds and controls, 10 μL of master mix containing 2 μM Sa-ClpP and 2 μM substrate (Bodipy-FL labeled casein) in Tris.HCl buffer, pH 8.0 with 0.01% (v/v) Triton X-100, was pipetted into each well. All assays were performed in triplicate, under linear velocity conditions. Increase in fluorescent signal following activation of Sa-ClpP by test compounds and controls was measured over time period of 30 mins using filters with excitation at 485±15 nm and emission at 520±25 nm on a PHERAstar FS Multilabel reader (BMG, Cary, N.C.). Instrument gains and enzyme linear velocity conditions were determined and validated using ADEP4, a known Sa-ClpP activator. Data analysis was done by measuring rate of casein degradation over time (slopes). Computed degradation rates (slopes) were normalized to positive (ADEP4) or negative (DMSO) controls. Using nonlinear regression curve fitting EC50 values and % activation were determined using the equation “log [agonist] vs. Response-variable slope (four parameters)-symmetrical” in the program Prism 6 (GraphPad Software, La Jolla, Calif. USA, www.graphpad.com).

[1] = ATCC29213, read-out: Minimal Inhibitory Concentrations (μM) S. aureus ATCC 29213, MIC
[2] = read-out: Minimal Inhibitory Concentrations (μM) E. faecails, MIC
[3] = USA300, read-out: Minimal Inhibitory Concentrations (μM) S. aureus USA 300, MIC
[4] = read-out: Minimal Inhibitory Concentrations (μM) MRSA NRS70, MIC
[5] = ATCC29213, MIC, read-out: Minimal Inhibitory Concentrations (μM) S. aureus ATCC 29213
[6] = MIC, read-out: Minimal Inhibitory Concentrations (μM) E. faecails
[7] = USA300, MIC, read-out: Minimal Inhibitory Concentrations (μM) S. aureus USA 300
[8] = MIC, read-out: Minimal Inhibitory Concentrations (μM) MRSA NRS70

SMILES | Minimal Inhibitory Concentrations (μM) S. aureus ΔClpP (S. aureus ΔClpP) [µM] | MIC (S. aureus ATCC 29213; [1]) [µM] | MIC (E. faecails; [2]) [µM] | MIC (S. aureus USA 300; [3]) [µM] | MIC (MRSA NRS70; [4]) [µM] | EC50 (S. aureus ClpP (Sa-ClpP)) [µM] | MIC (S. aureus ATCC 29213; [5]) [µM] | MIC (E. faecails; [6]) [µM] | MIC (S. aureus USA 300; [7]) [µM] | MIC (MRSA NRS70; [8]) [µM]
Cc1cccc(C[C@H](NC(=O)Nc2cccc(Cl)c2)C(=O)N[C@@H]2C(=O)N3C[C@H](O)C[C@H]3C(=O)N3CCOC[C@H]3C(=O)N[C@@H](C)C(=O)N3C[C@H](C)C[C@H]3C(=O)O[C@H]2C)c1 [Compound 74, (S)-2-(3-(3-CHLOROPHENYL)UREIDO)-N-((6AS,8R,12S,13S,15AS,17R,21S,23AS)-8-HYDROXY-13,17,21-TRIMETHYL-6,11,15,20,23-PENTAOXOOCTADECAHYDRO-6H,11H,15H-[1,4]OXAZINO[3,4-I]DIPYRROLO[2,1-C:2′,1′-L][1]OXA[4,7,10,13]TETRAAZACYCLOHEXADECIN-12-YL)-3-(M-TOLYL)PROPANAMIDE] ({NH(3-Cl-phenyl)-CO}-[Phe(3-Me)][aThr][Hyp][Morpholine(3S-CO)]A[Pro(4R-Me)]; ester 2-C) | >20 | 5 (≈ 4.12 µg/mL) | > 20 | 1.25 (≈ 1.03 µg/mL) | 5 (≈ 4.12 µg/mL) | 0.25 ± 0.1 |  |  |  | 
CCc1ccc(NC(=O)N[C@@H](Cc2cccc(C)c2)C(=O)N[C@H]2COC(=O)[C@@H]3CCCN3C(=O)[C@H](C)NC(=O)[C@@H]3CCCCN3C(=O)[C@@H]3C[C@@H](O)CN3C2=O)cc1 [Compound 55, (S)-2-(3-(4-ETHYLPHENYL)UREIDO)-N-((6S,8AS,14AS,16R,20S,23AS)-16-HYDROXY-6-METHYL-5,8,14,19,23-PENTAOXOOCTADECAHYDRO-1H,5H,14H,19H-PYRIDO[2,1-I]DIPYRROLO[2,1-C:2′,1′-L][1]OXA[4,7,10,13]TETRAAZACYCLOHEXADECIN-20-YL)-3-(M-TOLYL)PROPANAMIDE] | >20 |  |  |  |  | 1.05 ± 1 | 5 (≈ 3.94 µg/mL) | 2.5 (≈ 1.97 µg/mL) | 2.5 (≈ 1.97 µg/mL) | 2.5 (≈ 1.97 µg/mL)
CCc1ccc(NC(=O)N[C@@H](Cc2cccc(C)c2)C(=O)N[C@H]2COC(=O)[C@@H]3C[C@H](C)CN3C(=O)[C@H](C)NC(=O)[C@@H]3CCCCN3C(=O)[C@@H]3CCCN3C2=O)cc1 [Compound 52, (S)—N-((2S,6S,8AS,14AS,20S,23AS)-2,6-DIMETHYL-5,8,14,19,23-PENTAOXOOCTADECAHYDRO-1H,5H,14H,19H-PYRIDO[2,1-I]DIPYRROLO[2,1-C:2′,1′-L][1]OXA[4,7,10,13]TETRAAZACYCLOHEXADECIN-20-YL)-2-(3-(4-ETHYLPHENYL)UREIDO)-3-(M-TOLYL)PROPANAMIDE] | >20 |  |  |  |  | 0.22 ± 0.1 | 0.625 (≈ 0.491 µg/mL) | 0.313 (≈ 0.246 µg/mL) | 0.625 (≈ 0.491 µg/mL) | 0.313 (≈ 0.246 µg/mL)
Cc1cccc(C[C@H](NC(=O)Nc2ccc(Cl)cc2)C(=O)N[C@@H]2C(=O)N3C[C@H](O)C[C@H]3C(=O)N3CCCC[C@H]3C(=O)N[C@@H](C)C(=O)N3C[C@H](C)C[C@H]3C(=O)O[C@H]2C)c1 [Compound 61, (S)-2-(3-(4-CHLOROPHENYL)UREIDO)-N-((2R,6S,8AS,14AS,16R,20S,21S,23AS)-16-HYDROXY-2,6,21-TRIMETHYL-5,8,14,19,23-PENTAOXOOCTADECAHYDRO-1H,5H,14H,19H-PYRIDO[2,1-I]DIPYRROLO[2,1-C:2′,1′-L][1]OXA[4,7,10,13]TETRAAZACYCLOHEXADECIN-20-YL)-3-(M-TOLYL)PROPANAMIDE] ({NH(4-Cl-phenyl)-CO}-[Phe(3-Me)][aThr][Hyp][Pip]A[Pro(4R-Me)]; ester 2-C) | >20 | 0.156 (≈ 0.128 µg/mL) | 2.5 (≈ 2.06 µg/mL) | 0.156 (≈ 0.128 µg/mL) | 0.156 (≈ 0.128 µg/mL) | 0.27 ± 0.1 |  |  |  | 
